Reference: patent US20040059104A1, “Nucleotide mimics and their prodrugs” (priority 2002, published 2004)
Read-outs that look alike come from different tables or passages of the source.

Legend:
[1] = in vitro; conditions: bovine, serum
Description: Typically the total volume used for the experiment was 500 μl. The final concentrations of the reaction components were as follows:
The reacton mixtures were made up and incubated at 37° C. At appropriate times aliquots of 25 μl were removed and added to 65 μl ice-cold methanol. These solutions were our at −20° C. and typically overnight. After incubation samples were inutes at high speed in a microcentrifuge. The supernatant was nd the extract was dried under vacuum in a LabConco Centrivap Concentrator. The dried extracts were resuspended in dH2O and filtered to remove particulate before analysis on reverse phase HPLC.
The reverse phase HPLC columns used for the analysis were either a Phenomenex C18 Aqua column (2×100 mm) or the Phenomenex C18 Aqua column (3×150 mm) used with the appropriate guard column. The HPLC was run at 0.2 ml/min (for the 2×100 mm column) or at 0.5 ml/min (for the 3×150 mm column) with the following buffer system: 5 mM tetrabutylammonium acetate, 50 mM ammonium phosphate, and an acetonitrile gradient running from 5% up to as high as 60%. The amount of remaining parent compound at each time point was used to determine the half-life of the compound. […] Unmodified nucleoside triphosphates were used as positive controls.

[2] = tested on: Escherichia coli; experiment: Antimicrobial assay, minimal inhibitory concentration; assay type: cell-based; conditions: Escherichia coli, read-out: E. coli MIC
Description: To examine the antimicrobial potential of the nucleotide mimics of the present invention an assay was employed that allowed the screening of a large number of compounds simultaneously. The type of bacteria chosen to screen the compounds are organisms associated with human disease and represent major groups of bacteria based on their structure and metabolism. Bacterial cultures of Escherichia coli and Staphylococcus aureus were incubated overnight at 37° C. in a shaker incubator. A lawn of each overnight bacterial culture was made by plating […] of bacteria on agar plates containing Nutrient Broth. Immediately after plating, sterile blank paper discs were put on top of the lawn and a compound was applied to each blank paper disc. Plates were then incubated overnight and examined for the inhibition of bacterial growth the following day. […] The plates were incubated overnight at 37° C. and then examined spectrophotometrically at 600 nm to determine the minimum concentration of each compound that inhibited replication of bacteria as determined by no increase in absorbance at 600 nm.

[3] = overnight at 37° C., tested 0-200 μg/ml, NA = Not active
[4] = value in brackets beside the μg/ml value

MIC [2, 3] [µg/mL] | MIC [2, 4] [µM] | Structure (SMILES) | Half-Life, Serum Half-Lives of NTPs and AZT Triphosphate Mimics [1] [h] | further results
– | – | Cc1cn([C@H]2C[C@H](N=[N+]=[N-])[C@@H](COP(=O)(O)OP(=O)(O)OP(=O)(O)O)O2)c(=O)[nH]c1=O [AZT Triphosphate, 3′-azido-3′-deoxythymidine (AZT, an anti-HIV drug) triphosphate, reference compound] | 2 | –
2 | 7.5 | Cc1cn([C@H]2C[C@H](N=[N+]=[N-])[C@@H](CO)O2)c(=O)[nH]c1=O [AZT, 3′-azido-3′-deoxythymidine, reference compound] | – | –
20 | 28 | Cc1cn([C@H]2C[C@@H](N=[N+]=[N-])[C@@H](COP(=O)(O)NP(=O)(OCCSC(=O)C(C)(C)C)OCCSC(=O)C(C)(C)C)O2)c(=O)[nH]c1=O [Compound 71, 3′-Azido-3′-deoxythymidine 5′-β,β-O-di(S-pivaloyl-2-thioethyl)imidodiphosphate] | – | –
– | – | BP(=O)(OC[C@@H]1O[C@H](n2cc(C)c(=O)[nH]c2=O)C[C@H]1N=[N+]=[N-])OP(=O)(O)OP(=O)(O)O (stereo partly drawn) [AZT 5′-α-P-boranotriphosphate, reference compound] | 6 | –
– | – | BP(=O)(OCC1OC(n2cc(C)c(=O)[nH]c2=O)CC1N=[N+]=[N-])OP(=O)(O)C(F)(F)P(=O)(O)O (single isomer, unassigned; isomer 3) [Compound 27-Isomer, 3′-Azido-3′-deoxythymidine 5′-α-P-borano-β,γ-(difluoromethylene)triphosphate] | – | Half-Life, Serum Half-Lives of AZT Triphosphate Mimic Prodrugs [1]: >48 h
– | – | Cc1cn([C@H]2C[C@H](O)[C@@H](COP(=O)(O)OP(=O)(O)OP(=O)(O)O)O2)c(=O)[nH]c1=O [Thymidine Triphosphate, reference compound] | – | Half-Life, Serum Half-Lives of NTPs and AZT Triphosphate Mimics ([1]; 500 μM): 2 h
